Assays:
Format in all cases: in vivo
[1] = test system: barnyardgrass (Echinochloa crusgalli); test: Example 18, Procedure II: Herbicide No. 1 + ERADICANE (EPTC + R-25788) with auxiliary antidotes
Protocol: (§1) Containers were filled and compacted with a fumigated silt loam top soil to a depth of about 1.3 cm from the top of the container. A first container was designated as an untreated control, a second container was designated as a herbicide control, and a third container was designated as a herbicide + antidote test container. Each of the containers was seeded with a crop species. A measured amount of herbicide dispersed or dissolved in acetone was applied to a measured quantity of soil. To this same quantity of soil treated with herbicide, there was added a measured amount of antidote dispersed or dissolved in acetone. The quantity of soil treated with the herbicide and antidote was thoroughly mixed to incorporate the herbicide and antidote in the soil uniformly. The seed bed in the third container of soil was covered with the soil treated with the herbicide and antidote and the container was leveled. For each test series, the seed beds of the first and second containers were likewise covered by soil layers. the cover layer of the first container was not treated with herbicide or antidote.
(§2) The containers were then placed on a bench in a greenhouse and sub-irrigated as required for the duration of the test. […] Plant response is measured in terms of percent injury. Antidote efficacy is indicated as the difference in plant injury by the herbicide(s) without the antidote and with the antidote.
(§3) This procedure is the same as Procedure I, but modified in the manner that after incorporation of the chemicals (herbicide and antidote) the containers with the covered seedbed were treated with an initial overhead irrigation equivalent to 0.6 cm rainfall, then subsequently sub-irrigated as required on greenhouse benches.
(§4) In the series of greenhouse tests described below, for routine screening purposes the herbicide/antidote compositions were tested in crop/weed combinations involving corn as the crop and either or both of the weeds barnyardgrass (Echinochloa crusgalli), a monocotyledonous weed, and velvetleaf (Abutilon theophrasti), a dicotyledonous weed. In the tables below, these weeds are indicated by the symbols "BYG" and "VL", respectively.
(§5) In the test reported in this example, the herbicidal composition was similar to that used in Example 16 in that Herbicide No. 1 was combined with EPTC (Herbicide No. 4) as a co-herbicide and the antidotes included Nos. 1, 2, 7, 13 and 15. However, in this test the EPTC was introduced as a formulation of ERADICANE (EPTC + the antidote R-25788, i.e., Antidote No. 1) at an application rate of 8.96 kg/ha. Thus, in this test two antidotes were present, viz. R-25788 and one of the auxilliary antidotes, No. 2, 13 and 15.
(§6) Test procedures were those of Procedure II above.

[2] = test system: velvetleaf (Abutilon theophrasti); test: as above
Protocol: as §1, §2, §3, §4, §5, §6

[3] = test system: velvetleaf (Abutilon theophrasti); test: Example 22: retest of Example 21 at reduced greenhouse temperatures; conditions: Table 22
Procedure, shortened: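 Corn crop with barnyardgrass and velvetleaf seeded in silt loam; butylate plus antidote […] and test antidote in acetone incorporated into soil cover layer (Procedure II: 0.6 cm overhead irrigation, then sub-irrigation). Greenhouse temperatures reduced. Percent injury scored; antidote efficacy is the injury difference with vs. without antidote.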

[4] = test system: Giant foxtail (Setaria fabergi); test: Example 24, Procedure II: Herbicide No. 1 + co-herbicides Nos. 4, 6, 7, 12 with Antidote Nos. 15 and 17-21
Procedure, shortened: (§7)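 Greenhouse pots, herbicide No. 1 plus co-herbicides and antidote in acetone incorporated into silt loam soil covering the corn seed bed, with giant foxtail and velvetleaf; initial overhead irrigation equal to 0.6 cm rainfall, then sub-irrigation. Antidote at 2.24 kg/ha; percent injury read 13 days after application, duplicate average.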

corn = test: as above
Procedure, shortened: as §7

[5] = test system: velvetleaf (Abutilon theophrasti); test: as above
Procedure, shortened: as §7

[6] = Herbicide No.1 0.56 kg/ha + ERADICANE 8.96 kg/ha, antidote 2.24 kg/ha
[7] = Herbicide No.1 0.56 kg/ha + ERADICANE 8.96 kg/ha, antidote 8.96 kg/ha
[8] = Herbicide No.1 1.12 kg/ha + ERADICANE 8.96 kg/ha, antidote 2.24 kg/ha
[9] = Herbicide No.1 1.12 kg/ha + ERADICANE 8.96 kg/ha, antidote 8.96 kg/ha
[10] = Herb. No. 1 0.07 Kg/ha + Co-Herb. No. 4 1.12 Kg/ha + antidote 2.24 Kg/ha
[11] = Herb. No. 1 0.07 Kg/ha + Co-Herb. No. 6 0.14 Kg/ha + antidote 2.24 Kg/ha
[12] = Herb. No. 1 0.07 Kg/ha + Co-Herb. No. 7 0.28 Kg/ha + antidote 2.24 Kg/ha
[13] = Herb. No. 1 0.07 Kg/ha + Co-Herb. No. 12 0.28 Kg/ha + antidote 2.24 Kg/ha
[14] = Herb. No. 1 0.14 Kg/ha + Co-Herb. No. 4 1.12 Kg/ha + antidote 2.24 Kg/ha
[15] = Herb. No. 1 0.14 Kg/ha + Co-Herb. No. 6 0.14 Kg/ha + antidote 2.24 Kg/ha
[16] = Herb. No. 1 0.14 Kg/ha + Co-Herb. No. 7 0.28 Kg/ha + antidote 2.24 Kg/ha
[17] = Herb. No. 1 0.14 Kg/ha + Co-Herb. No. 12 0.28 Kg/ha + antidote 2.24 Kg/ha
[18] = Herb. No. 1 0.28 Kg/ha + Co-Herb. No. 4 1.12 Kg/ha + antidote 2.24 Kg/ha
[19] = Herb. No. 1 0.28 Kg/ha + Co-Herb. No. 6 0.14 Kg/ha + antidote 2.24 Kg/ha
[20] = Herb. No. 1 0.28 Kg/ha + Co-Herb. No. 7 0.28 Kg/ha + antidote 2.24 Kg/ha
[21] = Herb. No. 1 0.28 Kg/ha + Co-Herb. No. 12 0.28 Kg/ha + antidote 2.24 Kg/ha
[22] = Herb. No. 1 0.56 Kg/ha + Co-Herb. No. 4 1.12 Kg/ha + antidote 2.24 Kg/ha
[23] = Herb. No. 1 0.56 Kg/ha + Co-Herb. No. 6 0.14 Kg/ha + antidote 2.24 Kg/ha
[24] = Herb. No. 1 0.56 Kg/ha + Co-Herb. No. 7 0.28 Kg/ha + antidote 2.24 Kg/ha
[25] = Herb. No. 1 0.56 Kg/ha + Co-Herb. No. 12 0.28 Kg/ha + antidote 2.24 Kg/ha

SMILES: CC1(C)OC(c2ccco2)CN1C(=O)C(Cl)Cl (stereo not drawn) [compound 15]
- % Injury BYG [1, 6]: 90%
- % Injury BYG [1, 7]: 90%
- % Injury BYG [1, 8]: 93%
- % Injury BYG [1, 9]: 85%
- % Injury VL [2, 6]: 80%
- % Injury VL [2, 7]: 85%
- % Injury VL [2, 8]: 80%
- % Injury VL [2, 9]: 65%
- % Injury VL ([3]; Herbicide No.1 0.56 Kg/ha + SUTAN + 8.96 Kg/ha + antidote 2.24 Kg/ha): 70%
- % Injury VL ([3]; Herbicide No.1 0.56 Kg/ha + SUTAN + 8.96 Kg/ha + antidote 8.96 Kg/ha): 98%
- % Injury VL ([3]; Herbicide No.1 1.12 Kg/ha + SUTAN + 8.96 Kg/ha + antidote 2.24 Kg/ha): 80%
- % Injury VL ([3]; Herbicide No.1 1.12 Kg/ha + SUTAN + 8.96 Kg/ha + antidote 8.96 Kg/ha): 80%
- % Inhibition GFT [4, 10]: 40%
- % Inhibition GFT [4, 11]: 100%
- % Inhibition GFT [4, 12]: 100%
- % Inhibition GFT [4, 13]: 99%
- % Inhibition GFT [4, 14]: 65%
- % Inhibition GFT [4, 15]: 100%
- % Inhibition GFT [4, 16]: 100%
- % Inhibition GFT [4, 17]: 99%
- % Inhibition GFT [4, 18]: 60%
- % Inhibition GFT [4, 19]: 100%
- % Inhibition GFT [4, 20]: 100%
- % Inhibition GFT [4, 21]: 100%
- % Inhibition GFT [4, 22]: 60%
- % Inhibition GFT [4, 23]: 99%
- % Inhibition GFT [4, 24]: 100%
- % Inhibition GFT [4, 25]: 99%
- % Inhibition Corn (corn; [10]): 0%
- % Inhibition Corn (corn; [11]): 5%
- % Inhibition Corn (corn; [12]): 0%
- % Inhibition Corn (corn; [13]): 5%
- % Inhibition Corn (corn; [14]): 10%
- % Inhibition Corn (corn; [15]): 5%
- % Inhibition Corn (corn; [16]): 0%
- % Inhibition Corn (corn; [17]): 5%
- % Inhibition Corn (corn; [18]): 5%
- % Inhibition Corn (corn; [19]): 10%
- % Inhibition Corn (corn; [20]): 0%
- % Inhibition Corn (corn; [21]): 5%
- % Inhibition Corn (corn; [22]): 15%
- % Inhibition Corn (corn; [23]): 10%
- % Inhibition Corn (corn; [24]): 5%
- % Inhibition Corn (corn; [25]): 5%
- % Inhibition VL [5, 10]: 90%
- % Inhibition VL [5, 11]: 95%
- % Inhibition VL [5, 12]: 85%
- % Inhibition VL [5, 13]: 90%
- % Inhibition VL [5, 14]: 95%
- % Inhibition VL [5, 15]: 85%
- % Inhibition VL [5, 16]: 95%
- % Inhibition VL [5, 17]: 95%
- % Inhibition VL [5, 18]: 95%
- % Inhibition VL [5, 19]: 98%
- % Inhibition VL [5, 20]: 95%
- % Inhibition VL [5, 21]: 98%
- % Inhibition VL [5, 22]: 95%
- % Inhibition VL [5, 23]: 99%
- % Inhibition VL [5, 24]: 98%
- % Inhibition VL [5, 25]: 99%

— EP0603240B1, “SAFENING HERBICIDAL PYRAZOLYLSULFONYLUREAS” (priority 1991, dated 1993)
